{
  "source": "patent US12030929B2",
  "about": "“Fusobacterium nucleatum amyloid-like FadA for diagnosis and treatment of Fn-mediated pathogenesis” (The Trustees of Columbia University in the City of New York, priority 2021, dated 2024)",
  "key": {"Fn 12230": {"system": "Fn 12230", "assay": "pH tolerance assay, wild-type Fn", "type": "cell-based, Fusobacterium nucleatum", "details": "stationary phase; pH 4.0; 50 μg/ml Congo Red; 1 or 2 hours"}, "US1 (ΔfadA)": {"system": "US1 (ΔfadA)", "assay": "pH tolerance assay, fadA-deletion mutant", "type": "cell-based, Fusobacterium nucleatum", "details": "stationary phase; pH 4.0; 50 μg/ml Congo Red; 1 or 2 hours"}, "[1]": {"system": "Fn binding to human CRC cells DLD1", "assay": "Cell culture attachment assay, DLD1", "type": "cell-based", "details": "bacteria washed twice with 1 mg/ml Congo Red, MOI 50:1"}, "HCT116 xenograft tumors": {"system": "HCT116 xenograft tumors", "assay": "CRC xenograft model", "type": "in vivo", "details": "Fn 12230 washed in 1 mg/ml Congo Red, injected into tumors; IHC one week later; nude mice", "experimental": "FIG. 5A-5D. Amyloid-like FadA mediates colonization in CRC and promotes tumor growth in vivo. 5A. Analysis of Fn colonization in mouse xenograft tumors by IHC. An inoculum of 5×10^6 HCT116 cells was injected subcutaneously and bilaterally into the nude mice. Once the tumors became visible (after 3-4 days), approximately 5×10^6 CFU of Fn 12230 washed in PBS or 1 mg/ml Congo Red (CR) were injected into the tumors. The tumors were extracted one week later, and the formalin-fixed and embedded (FFPE) tissues were stained with mAb 7H7. Note the brown stains in tumor injected with PBS-washed tumor, but not in CR-washed tumor. 5B. Effects of secreted amyloid-like FadA on tumor growth. HCT116 cells were injected into the nude mice as described above, followed by injection of 5×10^6 CFU of Fn 12230 (Fn, n=7), lam (n=3) or US1 (ΔfadA, n=4). The tumor volumes were measured immediately before bacteria injection (Day 0, designated as 100%), and at 3 days after injection (Day 3). The horizontal lines represent averages of tumor volumes (left panel). The individual tumors are shown (right panel). **p<0.01, ***p<0.001 (t-test). 5C. […] The tumor volumes were measured on Day 0 and Day 5 as described above. […] The tumor volumes were measured described above. […]\nCRC xenograft model. […] The tumor length and width were measured using calipers and tumor volumes were calculated using the following formula: Volume=(width)2×length/2. […]"}},
  "data": [
    {"smiles": "Nc1c(/N=N/c2ccc(-c3ccc(/N=N/c4cc(S(=O)(=O)O)c5ccccc5c4N)cc3)cc2)cc(S(=O)(=O)O)c2ccccc12", "note": "[Congo Red]", "values": [
      {"measurement": "viability of wild-type Fn in acidic environment", "setting": "Fn 12230", "result": "drastically reduced viability of wild-type Fn to the similar levels as US1"},
      {"measurement": "viability of US1 (ΔfadA) in acidic environment", "setting": "US1 (ΔfadA)", "result": "without affecting US1 (ΔfadA)"},
      {"measurement": "effect on Fn binding to DLD1", "setting": "[1]; log phase", "result": "little or no effect on binding"},
      {"measurement": "reduction of Fn binding to DLD1", "setting": "[1]; stationary phase", "result": "~5", "unit": "fold"},
      {"measurement": "Fn colonization in xenograft tumors", "setting": "HCT116 xenograft tumors", "result": "significantly inhibited Fn colonization in xenograft tumors"}
    ]}
  ]
}
